The values that follow are results of earlier work, collected in US20170332633A1, “DOUBLE SALT IONIC LIQUIDS OF HERBICIDES” (THE BOARD OF TRUSTEES OF THE UNIVERSITY OF ALABAMA, priority 2014, published 2017).

This data set concerns rat.

Take `O=C(O)COc1ccc(Cl)cc1Cl` [Example 2.4-D, 2,4-dichlorophenoxyacetic acid]: the “rat LD50” value is 639 to 764 mg/kg.

Take `COc1c(Cl)ccc(Cl)c1C(=O)O` [Dicamba, 3,6-dichloro-2-methoxy benzoic acid]: the “rat LD50” value is reported as 1039 mg/kg.
